Settings: 99.6 kPa, Liquid; for viscosity: Capillary tube (Ostwald / Ubbelohde) method; for mass density: Vibrating tube method

CNC(C)=O [N-methylacetamide]
Settings	mass density [kg/m3]	viscosity [mPa·s]
308.15 K	946.01	3.57
313.15 K	941.81	3.152
318.15 K	937.59	2.8
323.15 K	933.36	2.496
328.15 K	929.17	2.245

Source: the NIST ThermoML archive (doi:10.1021/acs.jced.8b00399)
